Measurements from PubChem BioAssay AID1259411 (Chemical Carcinogenesis Research Information System (CCRIS), 2018).
The source made the active and inactive calls. How the calls were made is not given here.

Tested on: rodent carcinogenicity bioassays, tumor incidence
Test: CCRIS carcinogenicity studies
Details: Dose: 0
Summary of the method: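 Archive of carcinogenicity, mutagenicity, tumor promotion and tumor inhibition results drawn from journals, NCI reports and other sources, expert-reviewed; covers 1985-2011 and is no longer updated.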

Measured: carcinogen call

O=[N+]([O-])c1cc2c3ccccc3ccc2c2ccccc12
active: Species: MOUSE, Strain/Sex: B6C3F1/MALE, Route: INTRAPERITONEAL, 400 NMOL IN 35 µL DMSO ON DAYS 1 (1/7 TOTAL DOSE), 8 (2/7 TOTAL DOSE), AND 15 (4/7 TOTAL DOSE) AFTER BIRTH (STUDY DUR, Tumor Site: Type of Lesion: LIVER: ADENOMA OR CARCINOMA, LUNG: TUMOR active; positive | Species: MOUSE, Strain/Sex: BLU:HA/FEMALE, Route: INTRAPERITONEAL, 38.5, 189 UG (TOTAL DOSE) GIVEN TO NEWBORN MICE IN 3 DOSES OF 1/7, 2/7 AND 4/7 OF THE TOTAL ON DAYS 1, 8 AND 15 RESPE, 38.5, 189 UG (TOTAL DOSE) GIVEN TO NEWBORN MICE IN 3 DOSES OF 1/7, 2/7 AND 4/7 OF THE TOTAL ON DAYS 1, 8 AND 15 RESPE, Tumor Site: Type of Lesion: LUNG: TUMORS active; positive | Species: MOUSE, Strain/Sex: BLU:HA/MALE, Route: INTRAPERITONEAL, 38.5, 189 UG (TOTAL DOSE) GIVEN TO NEWBORN MICE IN 3 DOSES OF 1/7, 2/7 AND 4/7 OF THE TOTAL ON DAYS 1, 8 AND 15 RESPE, 38.5, 189 UG (TOTAL DOSE) GIVEN TO NEWBORN MICE IN 3 DOSES OF 1/7, 2/7 AND 4/7 OF THE TOTAL ON DAYS 1, 8 AND 15 RESPE, Tumor Site: Type of Lesion: LUNG: TUMORS active; positive | Species: MOUSE, Strain/Sex: ICR/FEMALE, Route: INTRAPERITONEAL, 7.5, 15, 30 µL OF A 26.7 NMOL/UL DMSO SOLUTION ON 1,8, AND 15 D OF AGE RESPECTIVELY (TOTAL DOSE: 0; 1.4 UMOL) (STUDY, 7.5, 15, 30 µL OF A 26.7 NMOL/UL DMSO SOLUTION ON 1,8, AND 15 D OF AGE RESPECTIVELY (TOTAL DOSE: 0; 1.4 UMOL) (STUDY, Tumor Site: Type of Lesion: LUNG: ADENOMA active; positive | Species: MOUSE, Strain/Sex: ICR/FEMALE, Route: INTRAPERITONEAL, 7.7 UG TOTAL DOSE (1.1 UG/5 µL, 2.2 UG/10 µL, 4.4 UG/20 µL DMSO ON DAYS 1, 8 AND 15) ADMINISTERED TO NEWBORN ANIMALS, Tumor Site: Type of Lesion: LUNG: ADENOMA, ADENOCARCINOMA active; positive | Species: MOUSE, Strain/Sex: ICR/FEMALE, Route: INTRAPERITONEAL, 100 NMOL (TOTAL DOSE) ADMINISTERED IN 3 SUBDOSES OF 1/7, 2/7, AND 4/7 ON DAYS 1, 8 AND 15 OF LIFE, RESPECTIVELY (STUD, Tumor Site: Type of Lesion: LUNG: TUMORS active; positive | Species: MOUSE, Strain/Sex: ICR/MALE, Route: INTRAPERITONEAL, 7.5, 15, 30 µL OF A 26.7 NMOL/UL DMSO SOLUTION ON 1,8, AND 15 D OF AGE RESPECTIVELY (TOTAL DOSE: 0; 1.4 UMOL) (STUDY, 7.5, 15, 30 µL OF A 26.7 NMOL/UL DMSO SOLUTION ON 1,8, AND 15 D OF AGE RESPECTIVELY (TOTAL DOSE: 0; 1.4 UMOL) (STUDY, Tumor Site: Type of Lesion: LUNG: ADENOMA active; positive | Species: MOUSE, Strain/Sex: ICR/MALE, Route: INTRAPERITONEAL, 7.7 UG TOTAL DOSE (1.1 UG/5 µL, 2.2 UG/10 µL, 4.4 UG/20 µL DMSO ON DAYS 1, 8 AND 15) ADMINISTERED TO NEWBORN ANIMALS, Tumor Site: Type of Lesion: LUNG: ADENOMA, ADENOCARCINOMA active; positive | Species: MOUSE, Strain/Sex: ICR/MALE, Route: INTRAPERITONEAL, 100 NMOL (TOTAL DOSE) ADMINISTERED IN 3 SUBDOSES OF 1/7, 2/7, AND 4/7 ON DAYS 1, 8 AND 15 OF LIFE, RESPECTIVELY (STUD, Tumor Site: Type of Lesion: LUNG: TUMORS, LIVER: TUMORS active; positive | Species: MOUSE, Strain/Sex: SWISS/FEMALE, Route: INTRAPERITONEAL, 100, 700 NMOL (TOTAL DOSE) 1/7, 2/7 AND 4/7 ADMINISTERED ON DAYS 1, 8 AND 15 OF LIFE RESPECTIVELY (STUDY DURATION: 32, 100, 700 NMOL (TOTAL DOSE) 1/7, 2/7 AND 4/7 ADMINISTERED ON DAYS 1, 8 AND 15 OF LIFE RESPECTIVELY (STUDY DURATION: 32, Tumor Site: Type of Lesion: LUNG: TUMOR active; positive | Species: MOUSE, Strain/Sex: SWISS/FEMALE, Route: INTRAPERITONEAL, 100 NMOL (TOTAL DOSE) ADMINISTERED 1/7, 2/7 AND 4/7 ON DAY 1, 8 AND 15 RESPECTIVELY (STUDY DURATION: 32 WK), Tumor Site: Type of Lesion: LUNG: TUMOR active; positive | Species: MOUSE, Strain/Sex: SWISS/FEMALE, Route: INTRAPERITONEAL, 100 NMOL ON DAY 1 OF LIFE (STUDY DURATION: 32 WK), Tumor Site: Type of Lesion: LUNG: TUMOR, LIVER: TUMOR active; positive | Species: MOUSE, Strain/Sex: SWISS/MALE, Route: INTRAPERITONEAL, 100, 700 NMOL (TOTAL DOSE) 1/7, 2/7 AND 4/7 ADMINISTERED ON DAYS 1, 8 AND 15 OF LIFE RESPECTIVELY (STUDY DURATION: 32, 100, 700 NMOL (TOTAL DOSE) 1/7, 2/7 AND 4/7 ADMINISTERED ON DAYS 1, 8 AND 15 OF LIFE RESPECTIVELY (STUDY DURATION: 32, Tumor Site: Type of Lesion: LUNG: TUMOR, LIVER: TUMOR active; positive | Species: MOUSE, Strain/Sex: SWISS/MALE, Route: INTRAPERITONEAL, 100 NMOL (TOTAL DOSE) ADMINISTERED 1/7, 2/7 AND 4/7 ON DAY 1, 8 AND 15 RESPECTIVELY (STUDY DURATION: 32 WK), Tumor Site: Type of Lesion: LIVER: TUMOR, LUNG: TUMOR active; positive | Species: MOUSE, Strain/Sex: SWISS/MALE, Route: INTRAPERITONEAL, 100 NMOL ON DAY 1 OF LIFE (STUDY DURATION: 32 WK), Tumor Site: Type of Lesion: LUNG: TUMOR, LIVER: TUMOR active; positive | Species: RAT, Strain/Sex: CD-1/FEMALE, Route: INTRAPERITONEAL, 15, 30, 60, 150, 300 µL OF A 26.7 NMOL/UL SOLUTION ON 1, 8, 15, 22, AND 29 D OF AGE RESPECTIVELY (TOTAL DOSE: 0, 14.8, 15, 30, 60, 150, 300 µL OF A 26.7 NMOL/UL SOLUTION ON 1, 8, 15, 22, AND 29 D OF AGE RESPECTIVELY (TOTAL DOSE: 0, 14.8, Tumor Site: Type of Lesion: COLON: ADENOCARCINOMA, ADENOMA/DYSPLASIA active; positive | Species: RAT, Strain/Sex: CD-1/MALE, Route: INTRAPERITONEAL, 15, 30, 60, 150, 300 µL OF A 26.7 NMOL/UL DMSO SOLUTION ON 1, 8, 15, 22 AND 29 D OF AGE RESPECTIVELY (TOTAL DOSE: 0;, 15, 30, 60, 150, 300 µL OF A 26.7 NMOL/UL DMSO SOLUTION ON 1, 8, 15, 22 AND 29 D OF AGE RESPECTIVELY (TOTAL DOSE: 0;, Tumor Site: Type of Lesion: COLON: ADENOCARCINOMA, ADENOMA active; positive | Species: RAT, Strain/Sex: STRAIN-CD/ FEMALE, Route: INJECTION, 2.04 UMOL IN 0.1 ML DMSO INJECTED BENEATH EACH OF THREE LEFT THORACIC NIPPLES THEN ON THE NEXT DAY BENEATH EACH THE T, Tumor Site: Type of Lesion: MAMMARY GLAND: TUMOR active; positive | Species: RAT, Strain/Sex: STRAIN-CD/FEMALE, Route: INJECTION, 2.04 UMOL IN 100 µL DMSO INJECTED INTO 3 THORACIC MAMMARY GLANDS ON DAY 1 AND INTO 3 INQUINAL MAMMARY GLANDS ON DAY 2, Tumor Site: Type of Lesion: MAMMARY GLAND: FIBROADENOMA, ADENOCARCINOMA, SPINDLE CELL SARCOMA active; positive
